The supplement of paper PMC4862054

What was measured:
Settings in all cases: incubation time: 72 h
BT-474 [1] = test: normalised viability (% of control), CellTiter-Blue; higher = more viable cells (100 = DMSO, 0 = benzethonium chloride kill control)
Experimental: (§1)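 DSRT, CellTiter-Blue viability, 72 h incubation. Signal is normalised to DMSO and benzethonium chloride controls. Value is the normalised response at dose 1.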

MDA-MB-468 [2] = test: as above
Experimental: as §1

MDA-MB-453 [3] = test: as above
Experimental: as §1

HDQ-P1 [4] = test: as above
Experimental: as §1

MDA-MB-436 [5] = test: as above
Experimental: as §1

SK-BR-3 [6] = test: as above
Experimental: as §1

CAL-85-1 [7] = test: as above
Experimental: as §1

Hs578T [8] = test: as above
Experimental: as §1

HCC1937 [9] = test: as above
Experimental: as §1

CAL-51 [10] = test: as above
Experimental: as §1

BT-549 [11] = test: as above
Experimental: as §1

HCC1143 [12] = test: as above
Experimental: as §1

HCC1599 [13] = test: as above
Experimental: as §1

CAL-148 [14] = test: as above
Experimental: as §1

MDA-MB-231 [15] = test: as above
Experimental: as §1

CAL-120 [16] = test: as above
Experimental: as §1

MFM-223 [17] = test: as above
Experimental: as §1

DU-4475 [18] = test: as above
Experimental: as §1

BT-474 [19] = test: normalised response (% of control), CellTiter-Glo; higher = more viable cells (100 = DMSO, 0 = benzethonium chloride kill control)
In short: (§2)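 Breast cancer cell lines in 20 µl suspension were added to 384-well plates containing compound at 5 concentrations, spaced in 10-fold steps across a 10,000-fold range chosen for each compound, and incubated for 72 h. CellTox Green fluorescence was read at 485/520 nm, followed by CellTiter-Glo luminescence after 10 min at room temperature. Signals on each plate were normalised so that 0.1 % DMSO equals 100 and a positive kill control equals 0. Every value in the table is the normalised signal at one concentration of the series.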

MDA-MB-468 [20] = test: as above
In short: as §2

MDA-MB-453 [21] = test: as above
In short: as §2

HDQ-P1 [22] = test: as above
In short: as §2

MDA-MB-436 [23] = test: as above
In short: as §2

SK-BR-3 [24] = test: as above
In short: as §2

CAL-85-1 [25] = test: as above
In short: as §2

Hs578T [26] = test: as above
In short: as §2

HCC1937 [27] = test: as above
In short: as §2

CAL-51 [28] = test: as above
In short: as §2

BT-549 [29] = test: as above
In short: as §2

MCF-10A = test: as above
In short: as §2

HCC1143 [30] = test: as above
In short: as §2

HCC1599 [31] = test: as above
In short: as §2

CAL-148 [32] = test: as above
In short: as §2

MDA-MB-231 [33] = test: as above
In short: as §2

CAL-120 [34] = test: as above
In short: as §2

MFM-223 [35] = test: as above
In short: as §2

DU-4475 [36] = test: as above
In short: as §2

Row | Compound | normalised viability (BT-474 [1]) [%] | normalised viability (MDA-MB-468 [2]) [%] | normalised viability (MDA-MB-453 [3]) [%] | normalised viability (HDQ-P1 [4]) [%] | normalised viability (MDA-MB-436 [5]) [%] | normalised viability (SK-BR-3 [6]) [%] | normalised viability (CAL-85-1 [7]) [%] | normalised viability (Hs578T [8]) [%] | normalised viability (HCC1937 [9]) [%] | normalised viability (CAL-51 [10]) [%] | normalised viability (BT-549 [11]) [%] | normalised viability (HCC1143 [12]) [%] | normalised viability (HCC1599 [13]) [%] | normalised viability (CAL-148 [14]) [%] | normalised viability (MDA-MB-231 [15]) [%] | normalised viability (CAL-120 [16]) [%] | normalised viability (MFM-223 [17]) [%] | normalised viability (DU-4475 [18]) [%] | normalised response (BT-474 [19]) [%] | normalised response (MDA-MB-468 [20]) [%] | normalised response (MDA-MB-453 [21]) [%] | normalised response (HDQ-P1 [22]) [%] | normalised response (MDA-MB-436 [23]) [%] | normalised response (SK-BR-3 [24]) [%] | normalised response (CAL-85-1 [25]) [%] | normalised response (Hs578T [26]) [%] | normalised response (HCC1937 [27]) [%] | normalised response (CAL-51 [28]) [%] | normalised response (BT-549 [29]) [%] | normalised response (MCF-10A) [%] | normalised response (HCC1143 [30]) [%] | normalised response (HCC1599 [31]) [%] | normalised response (CAL-148 [32]) [%] | normalised response (MDA-MB-231 [33]) [%] | normalised response (CAL-120 [34]) [%] | normalised response (MFM-223 [35]) [%] | normalised response (DU-4475 [36]) [%]
1 | Nc1nc2[nH]cnc2c(=S)[nH]1 [Thioguanine] (1 nM) | 100 | 104 | 104 | 111 | 101 | 99.9 | 98.1 | 136 | 90.2 | 104 | 98.8 | 95.3 | 110 | 107 | 92.8 | 97.5 | 98.4 | 105 | 98.1 | 94.5 | 98.1 | 98.4 | 94 | 94.2 | 92.8 | 101 | 92.8 | 77.6 | 104 | 101 | 98.9 | 105 | 95.3 | 96.2 | 93.3 | 94.1 | 96.7
2 | Cn1cnc2c(F)c(Nc3ccc(Br)cc3Cl)c(C(=O)NOCCO)cc21 [Selumetinib] (1 nM) | 104 | 101 | 109 | 107 | 97.6 | 94 | 90.1 | 107 | 100 | 113 | 102 | 90.6 | 98.5 | 107 | 89 | 81 | 83.6 | 102 | 84.7 | 93.8 | 111 | 91.4 | 80.8 | 96.5 | 104 | 99 | 89.5 | 99.8 | 103 | 81.2 | 89.6 | 93.2 | 87.8 | 97 | 93.3 | 94.9 | 95.5
3 | CC1=C2C[C@H]3[C@@H](CC=C4C[C@@H](O)CC[C@@]43C)[C@@H]2CC[C@]12O[C@@H]1C[C@H](C)CN[C@H]1[C@H]2C [Cyclopamine] (1 nM) | 118 | 103 | 102 | 135 | 126 | 97.3 | 94.5 | 121 | 109 | 109 | 111 | 97.4 | 96.5 | 117 | 100 | 94 | 97.5 | 120 | 103 | 101 | 111 | 103 | 106 | 115 | 100 | 103 | 106 | 107 | 104 | 108 | 103 | 98.1 | 123 | 103 | 107 | 103 | 106
4 | Oc1ncnc2[nH]ncc12 [Allopurinol] (1 nM) | 97.2 | 109 | 116 | 108 | 102 | 91.7 | 112 | 95.6 | 78.6 | 92.5 | 92.2 | 106 | 91.2 | 119 | 93.5 | 111 | 96.2 | 109 | 101 | 109 | 113 | 101 | 99.9 | 117 | 99.3 | 103 | 98.2 | 95.1 | 106 | 108 | 108 | 101 | 100 | 101 | 100 | 105 | 102
5 | Cc1sc2c(c1C)C(c1ccc(Cl)cc1)=N[C@@H](CC(=O)OC(C)(C)C)c1nnc(C)n1-2 [(+)JQ1] (1 nM) | 114 | 104 | 177 | 90.9 | 139 | 107 | 87.4 | 114 | 97.4 | 97.5 | 104 | 126 | 113 | 108 | 114 | 90.3 | 102 | 110 | 107 | 103 | 126 | 101 | 127 | 111 | 97.2 | 98.1 | 95.8 | 85 | 103 | 105 | 103 | 96.6 | 113 | 106 | 98.5 | 104 | 106
6 | O=C1CN2Cc3c(ccc(Cl)c3Cl)N=C2N1 [Anagrelide] (1 nM) | 122 | 101 | 105 | 112 | 80.8 | 96.1 | 88.7 | 119 | 68.3 | 105 | 113 | 90.1 | 87.8 | 103 | 102 | 84.6 | 98.9 | 109 | 90.6 | 103 | 109 | 110 | 86 | 104 | 99.5 | 100 | 97.1 | 110 | 101 | 94 | 100 | 105 | 90.2 | 97.2 | 92.8 | 98.8 | 102
7 | COc1cc2c(cc1O)CC[C@@H]1[C@@H]2CC[C@]2(C)[C@@H](O)CC[C@@H]12 [2-methoxyestradiol] (1 nM) | 102 | 103 | 95.5 | 97.1 | 115 | 89.3 | 91.6 | 105 | 87.5 | 112 | 96.4 | 88.9 | 101 | 102 | 88.8 | 92.1 | 102 | 107 | 96.7 | 104 | 106 | 97.1 | 101 | 87.2 | 102 | 106 | 98.8 | 122 | 103 | 92.5 | 97.8 | 104 | 97.3 | 104 | 94.9 | 95.9 | 99
